One assay deals with A549-sh8 tumors. Kind of assay: A549-sh8 (Rb shRNA) xenograft in nude mice. It counts as in vivo. As to conditions: 150 mpk orally. On the procedure:
(§1) Animal Studies. Nude mice (Charles River, Wilminton, Mass., USA) were maintained in accordance with Institutional Animal Care and Use Committee (IAUCUC) procedures and guidelines. A549 cells were harvested and resuspended in PBS, and then injected s.c. into the right and left flanks (10×10^6 cells per flank) of 8-week old female nude mice as reported previously (Sun 99). When tumors reached about 100-200 mm^3, animals were dosed intraperitoneally i.p. or orally by gavage with 0.1 mL solution once daily. Control animals received a vehicle, whereas treated animals were given 3a or RRD-238a at the indicated doses. The tumor volumes were determined by measuring the length (l) and the width (w) and calculating the volume (V=lw^2/2) as described previously (Sun 99). Statistical significance between control and treated animals were evaluated using Student's t-test.
Athymic nude mice were implanted with 1×10^7 A549 cells bilaterally and the tumors were allowed to reach 200 mm^3 in size before treatment began. […] Furthermore, to examine whether 3a could affect the growth of tumors lacking Rb in vivo, sh6 and sh8 (shRNA for Rb) cell lines were implanted into the flanks of nude mice. The mice were given 3a orally at 150 mpk and the control groups were administered the vehicle.

The test system of assay [1] is cdc6, cdc25A and TS promoters. The assay is described as follows: Chromatin immunoprecipitation (ChIP) assay, A549 cells. As to conditions: 20 μM. It counts as cell-based, human. The procedure:
Chromatin immunoprecipitation (ChIP) assay. A549 cells were rendered quiescent by serum starvation and re-stimulated with serum for 2h or 16h in the presence or absence of RRD 251 at 20μM. Cells were cross-linked with 1% formaldehyde for 10 minutes at room temperature. Subsequently, the cells were harvested and lysates were prepared. Immunoprecipitations were analyzed for the presence of E2F1, Rb, Raf-1, Brg1, HP1, and HDAC1 by PCR as previously described (Dasgupta 2004). Rabbit anti-mouse secondary antibody was used as the control for all reactions. The sequences of the PCR primers used in the PCRs were as follows: Cdc6 promoter (forward primer), 5′- […]-3′ (SEQ ID NO:1); and Cdc6 promoter (reverse primer), 5′-[…]-3′ (SEQ ID NO:2). TS promoter (forward primer), and 5′-GAC GGA GGC AGG CCA AGT G-3′ SEQ ID NO:3) TS promoter (reverse primer). The cdc25A and c-fos primers are described in (Dasgupta, 2004).
Since serum is known to stimulate the binding of Raf-1 to Rb and leads to the dissociation of the co-repressor Brg-1 from E2F-responsive proliferative promoters like cdc6, cdc25 and TS promoters, it was hypothesized that 3a may interfere with this process. […] Binding of E2F1, HDAC1 and HP1 was not affected.

Another assay relates to LNCaP prostate cell line. Kind of assay: BrdU proliferation assay, LNCaP. It counts as cell-based. On the procedure:
(§2) Proliferation assays. Bromodeoxyuridine (BrdU) labeling kits were obtained from Roche Biochemicals (Indianapolis, Ind.). Cells were plated in poly-D-lysine coated chamber slides at a density of 10,000 cells per well and rendered quiescent by serum starvation for 24 hours. Cells were then re-stimulated with serum in the presence or absence of the indicated drugs for 18 h. S-phase cells were visualized by microscopy and quantitated by counting 3 fields of 100 in quadruplicate.
Prostate cell lines LNCaP and PC3 both contain mutations in K-Ras and PTEN genes.

Another assay relates to PANC1 cells. Kind of assay: Soft agar assay, PANC1. The format is cell-based. The procedure: Soft Agar Assay. Soft agar assays were done in triplicate in 12-well plates (Corning, Corning N.Y.). First, the bottom layer of agar (0.6%) was allowed to solidify at room temperature. Next the top layer of agar was (0.3%) was mixed with 5,000 cells per well and the indicated drug. The drugs were added twice weekly in complete media to the agar wells. Colonies were quantified by staining with MTT (3-(4,5-Dimethylthiazol-2-yl)-2,5-diphenyltetrazolium bromide) 1 mg/mL for 1 hour at 37° C.
Experiments were also carried out to examine the effect of 3a in inhibiting the adherence-independent growth of cancer cells in soft agar.

For a further assay, the system named is MDA-MB-231 cells. The assay is described as follows: BrdU proliferation assay, MDA-MB-231. It counts as cell-based, human. The procedure:
as §2
The metastatic human breast cancer cell line MDA-MB-231 harbors a K-Ras mutation and overexpresses EGFR.

Another assay has as its system cyclin E kinase activity. Kind of assay: In vitro kinase assay, cyclin E. It counts as biochemical. On the procedure:
In vitro kinase assay. The kinase reaction for Raf-1 was carried out with 100 nanograms (ng) of Raf-1 (Upstate Signaling, Charlottesville, Va.), 0.5 μg of full-length Rb protein (QED Bioscience, San Diego, Calif.) as the substrate, 10 μM ATP, 10 μCi of [γ-^32P] ATP in the kinase assay buffer in the presence or absence of the drugs at 30° C. for 30 minutes. Cyclin D and E kinase assays are described in (Dasgupta 2004).

Assay [2] addresses T1, Rb:Raf-1 interaction in tumor xenografts (Homo sapiens, UniProt P04049+P06400).
T1 construct: from tissue; host or cells: A549 xenograft tumors from nude mice
Kind of assay: IP-Western of tumor lysates, Rb:Raf-1. The format is in vivo, nude mice. The following applies: both doses. On the procedure: Lysate preparation, pmmunoprecipitation, and pestern plotting.
At the end of the drug treatment, the A549 tumors were removed from the mice and fixed in formalin or snap frozen in liquid nitrogen for further histochemical analysis. The tumors were analyzed by immunohistochemistry staining with hematoxylin and eosin (H&E), TUNEL, Ki-67, phospho-Rb (807,811), and CD-31. […] Tumors were homogenized and lysates were prepared to assess the inhibition of Rb:Raf-1 interaction in vivo.

In another assay the test system is A549 tumors. Kind of assay: A549 xenograft in nude mice. It counts as in vivo. As to conditions: for tumor size, A549 xenograft: vehicle 1039±128 mm^3. On the procedure:
as §1, with “Control animals received a vehicle, whereas treated animals were given 3a or RRD-238a at the indicated doses.” left out

The subject of assay [3] is Aspc1, PANC1, and CAPAN2 pancreatic cancer cells. Kind of assay: BrdU incorporation, S-phase entry, pancreatic cancer cells. It counts as cell-based. As to conditions: range over three pancreatic cell lines. The procedure: as §2
In general terms: Dividing cells build labelled thymidine or BrdU into new DNA.

Assay [4] concerns A549 cells stably expressing sh8. Kind of assay: BrdU incorporation, A549 Rb shRNA sh8. It counts as cell-based, human. As to conditions: 20 μM, Rb knock down. On the procedure: as §2
To further confirm that 3a requires a functional Rb to inhibit tumor cell proliferation, A549 cells (human epithelial lung carcinoma) were stably transfected with two different shRNA constructs (sh6 and sh8) to knock down Rb expression.

Entries after “also recorded” stand apart in the source; their conditions may differ.

The values below come from patent US9656953B2, “Inhibition of cell proliferation” (University of South Florida, priority 2005, dated 2017).

T1 sequence (P06400 whole entry): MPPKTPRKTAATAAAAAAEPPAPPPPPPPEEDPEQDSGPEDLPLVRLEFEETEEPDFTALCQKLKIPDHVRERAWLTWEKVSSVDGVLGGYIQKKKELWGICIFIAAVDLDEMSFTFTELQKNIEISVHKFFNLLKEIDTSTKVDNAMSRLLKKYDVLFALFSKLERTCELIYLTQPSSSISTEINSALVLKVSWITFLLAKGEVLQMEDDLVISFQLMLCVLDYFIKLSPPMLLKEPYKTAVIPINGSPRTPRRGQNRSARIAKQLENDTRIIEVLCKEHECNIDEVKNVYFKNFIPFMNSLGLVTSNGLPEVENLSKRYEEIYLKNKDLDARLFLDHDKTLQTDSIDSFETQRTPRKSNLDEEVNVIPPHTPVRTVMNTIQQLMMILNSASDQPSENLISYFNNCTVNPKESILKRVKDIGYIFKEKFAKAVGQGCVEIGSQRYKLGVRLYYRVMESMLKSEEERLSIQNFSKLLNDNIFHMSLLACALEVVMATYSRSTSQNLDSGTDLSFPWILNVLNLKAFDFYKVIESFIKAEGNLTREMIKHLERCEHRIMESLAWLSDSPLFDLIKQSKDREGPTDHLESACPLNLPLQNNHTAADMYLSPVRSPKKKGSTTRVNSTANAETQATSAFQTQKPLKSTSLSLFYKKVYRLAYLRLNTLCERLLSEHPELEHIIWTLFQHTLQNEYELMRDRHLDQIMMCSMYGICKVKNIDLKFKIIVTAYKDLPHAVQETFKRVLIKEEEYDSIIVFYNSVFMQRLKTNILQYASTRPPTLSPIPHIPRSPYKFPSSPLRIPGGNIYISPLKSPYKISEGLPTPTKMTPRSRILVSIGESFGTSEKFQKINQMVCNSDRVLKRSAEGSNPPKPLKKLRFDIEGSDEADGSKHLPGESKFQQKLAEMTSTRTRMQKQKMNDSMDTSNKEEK
T1 sequence (P04049 whole entry): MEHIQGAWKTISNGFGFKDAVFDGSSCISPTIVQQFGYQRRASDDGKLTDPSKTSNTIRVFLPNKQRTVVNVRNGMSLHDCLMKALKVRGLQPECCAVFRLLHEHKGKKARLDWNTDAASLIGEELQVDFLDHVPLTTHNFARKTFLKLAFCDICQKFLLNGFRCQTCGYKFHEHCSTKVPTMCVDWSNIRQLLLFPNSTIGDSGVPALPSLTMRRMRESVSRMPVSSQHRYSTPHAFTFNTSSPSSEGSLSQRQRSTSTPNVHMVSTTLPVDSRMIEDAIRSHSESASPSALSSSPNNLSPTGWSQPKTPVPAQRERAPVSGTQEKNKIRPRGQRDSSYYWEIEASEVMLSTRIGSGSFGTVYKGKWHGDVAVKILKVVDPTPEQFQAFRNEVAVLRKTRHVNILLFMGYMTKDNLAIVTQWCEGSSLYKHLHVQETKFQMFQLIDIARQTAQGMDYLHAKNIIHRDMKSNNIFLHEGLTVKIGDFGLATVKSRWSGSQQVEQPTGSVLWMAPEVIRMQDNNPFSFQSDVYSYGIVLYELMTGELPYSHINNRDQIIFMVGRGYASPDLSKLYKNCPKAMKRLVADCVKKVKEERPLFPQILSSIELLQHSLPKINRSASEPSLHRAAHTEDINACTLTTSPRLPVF

In the case of `Cl.N=C(N)SCc1ccc(Cl)cc1Cl` [Compound 3a], the “tumor growth, A549-sh8 tumors lacking Rb” value in the assay on A549-sh8 tumors was “unable to inhibit tumor growth; also recorded: did not respond”. Also, in assay [1], the “Raf-1 binding to E2F-responsive promoters upon serum stimulation” value was “causes the dissociation of Raf-1; also recorded: disrupted”; the “binding of E2F1, HDAC1 and HP1 to promoters” value is reported as “not affected”; the “dissociation of co-repressor Brg-1 from promoters” value is on record as “retention of Brg1; also recorded: inhibited”. Besides, the “inhibition of proliferation, LNCaP” value with LNCaP prostate cell line is on record as 86%. For the same molecule, the “adherence-independent growth in soft agar, PANC1” value in the assay on PANC1 cells is given as “significantly inhibited the growth”. For the same molecule, the “inhibition of proliferation, MDA-MB-231” value with MDA-MB-231 cells came to 56%. Also, the “cyclin E kinase activity” value in the assay with cyclin E kinase activity was “does not inhibit; also recorded: did not affect the kinase activities”. The “Rb:Raf-1 interaction in tumor lysates” value in assay [2] is given as “inhibit the Rb:Raf-1 interaction in tumor lysates”. In addition, the “A549 tumor growth in words, 3a” value in the assay on A549 tumors (50 mpk/day i.p. or 150 mpk/day oral) is recorded as “completely inhibit tumor growth; also recorded: did not grow”. In addition, in the assay with A549 tumors (50 mpk/day i.p.), the “tumor size, A549 xenograft” value was found to be 144±20 mm^3. Further, the “tumor size, A549 xenograft” value in the assay with A549 tumors (150 mpk/day oral) is on record as 148±32 mm^3. For the same molecule, in assay [3], the “inhibition of S-phase entry, Aspc1, PANC1, CAPAN2” value is 50-65%. The “S-phase entry (BrdU), A549 sh8” value in [4] was “does not inhibit the proliferation; also recorded: no effect”.
